Assays:
Format in all cases: in vivo
[1] = tested on: windgrass (Apera spica-venti); assay: Test C preemergence, plant response rating
[2] = tested on: pigweed, palmer (palmer pigweed, Amaranthus palmeri); assay: Test C preemergence, plant response rating
[3] = tested on: wild poinsettia (Euphorbia heterophylla); assay: Test C preemergence, plant response rating
[4] = tested on: johnsongrass (Sorghum halepense); assay: Test C preemergence, plant response rating
[5] = tested on: geranium, cutleaf (cutleaf geranium, Geranium dissectum); assay: Test C postemergence, plant response rating; settings: for Geranium, Cutleaf plant response rating: scale 0 to 100 (0 no effect, 100 complete control)
Outline: (§1)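 Greenhouse plants rated visually against untreated controls 13–15 d after treatment, scale 0 = no effect to 100 = complete control. Postemergence sprays went onto potted plants 2–18 cm tall (1–4 leaves); preemergence sprays onto soil freshly sown in loam–sand or silt loam, chemicals formulated in non-phytotoxic solvent with surfactant.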

[6] = tested on: johnsongrass (Sorghum halepense); assay: Test C postemergence, plant response rating; settings: for Johnsongrass plant response rating: scale 0 to 100 (0 no effect, 100 complete control)
Outline: as §1

[7] = tested on: nightshade (eastern black nightshade, Solanum ptycanthum); assay: Test C postemergence, plant response rating; settings: for Nightshade plant response rating: scale 0 to 100 (0 no effect, 100 complete control)
Outline: as §1

[8] = tested on: surinam grass (Brachiaria decumbens); assay: Test C postemergence, plant response rating; settings: for Surinam Grass plant response rating: 125 g ai/ha, scale 0 to 100 (0 no effect, 100 complete control)
Outline: as §1

[9] = tested on: wild mustard (Sinapis arvensis); assay: Test C postemergence, plant response rating; settings: for Mustard, Wild plant response rating: scale 0 to 100 (0 no effect, 100 complete control)
Outline: as §1

[10] = tested on: wild poinsettia (Euphorbia heterophylla); assay: Test C postemergence, plant response rating; settings: for Poinsettia, Wild plant response rating: scale 0 to 100 (0 no effect, 100 complete control)
Outline: as §1

[11] = tested on: field violet (Viola arvensis); assay: Test C postemergence, plant response rating; settings: for Field Violet plant response rating: scale 0 to 100 (0 no effect, 100 complete control)
Outline: as §1

[12] = tested on: windgrass (Apera spica-venti); assay: Test C postemergence, plant response rating; settings: for Windgrass plant response rating: 125 g ai/ha, scale 0 to 100 (0 no effect, 100 complete control)
Outline: as §1

[13] = tested on: speedwell (bird's-eye speedwell, Veronica persica); assay: Test C postemergence, plant response rating; settings: for Speedwell plant response rating: scale 0 to 100 (0 no effect, 100 complete control)
Outline: as §1

[14] = tested on: buckwheat, wild (wild buckwheat, Polygonum convolvulus); assay: Test C postemergence, plant response rating; settings: for Buckwheat, Wild plant response rating: scale 0 to 100 (0 no effect, 100 complete control)
Outline: as §1

[15] = tested on: pigweed, palmer (palmer pigweed, Amaranthus palmeri); assay: Test C postemergence, plant response rating; settings: for Pigweed, Palmer plant response rating: scale 0 to 100 (0 no effect, 100 complete control)
Outline: as §1

[16] = tested on: field poppy (Papaver rhoeas); assay: Test C postemergence, plant response rating; settings: for Field Poppy plant response rating: scale 0 to 100 (0 no effect, 100 complete control)
Outline: as §1

[17] = tested on: Canada thistle (Cirsium arvense); assay: Test C postemergence, plant response rating; settings: for Canada Thistle plant response rating: scale 0 to 100 (0 no effect, 100 complete control)
Outline: as §1

## CCCCC(=O)c1c(Oc2ncc(Cl)cn2)cccc1C(F)(F)F [Compound 130]
[1]; 31 g ai/ha, scale 0 to 100
  Plant response rating, Windgrass: 70
[1]; 62 g ai/ha, scale 0 to 100
  Plant response rating, Windgrass: 100
[1]; 125 g ai/ha, scale of 0 to 100
  Plant response rating, Windgrass: 100
[2]; 31 g ai/ha, scale 0 to 100
  Plant response rating, Pigweed, Palmer: 75
[2]; 62 g ai/ha, scale 0 to 100
  Plant response rating, Pigweed, Palmer: 100
[2]; 125 g ai/ha, scale of 0 to 100
  Plant response rating, Pigweed, Palmer: 85
[3]; 31 g ai/ha, scale 0 to 100
  Plant response rating, Poinsettia, Wild: 0
[3]; 62 g ai/ha, scale 0 to 100
  Plant response rating, Poinsettia, Wild: 10
[3]; 125 g ai/ha, scale of 0 to 100
  Plant response rating, Poinsettia, Wild: 45
[4]; 31 g ai/ha, scale 0 to 100
  Plant response rating, Johnsongrass: 10
[4]; 62 g ai/ha, scale 0 to 100
  Plant response rating, Johnsongrass: 70
[4]; 125 g ai/ha, scale of 0 to 100
  Plant response rating, Johnsongrass: 85
[5]; 16 g ai/ha, scale of 0 to 100
  Plant response rating, Geranium, Cutleaf: 25
[5]; 31 g ai/ha, scale 0 to 100
  Plant response rating, Geranium, Cutleaf: 35
[5]; 62 g ai/ha
  Geranium, Cutleaf plant response rating: 45
[5]; 125 g ai/ha
  Geranium, Cutleaf plant response rating: 60
[6]; 16 g ai/ha, scale of 0 to 100
  Plant response rating, Johnsongrass: 5
[6]; 31 g ai/ha, scale 0 to 100
  Plant response rating, Johnsongrass: 5
[6]; 62 g ai/ha
  Johnsongrass plant response rating: 10
[6]; 125 g ai/ha
  Johnsongrass plant response rating: 15
[7]; 16 g ai/ha, scale of 0 to 100
  Plant response rating, Nightshade: 75
[7]; 31 g ai/ha, scale 0 to 100
  Plant response rating, Nightshade: 80
[7]; 62 g ai/ha
  Nightshade plant response rating: 85
[7]; 125 g ai/ha
  Nightshade plant response rating: 90
[8]; 16 g ai/ha, scale of 0 to 100
  Plant response rating, Surinam Grass: 10
[8]; 31 g ai/ha, scale 0 to 100
  Plant response rating, Surinam Grass: 10
[8]
  Surinam Grass plant response rating: 20
[9]; 16 g ai/ha, scale of 0 to 100
  Plant response rating, Mustard, Wild: 98
[9]; 31 g ai/ha, scale 0 to 100
  Plant response rating, Mustard, Wild: 90
[9]; 62 g ai/ha
  Mustard, Wild plant response rating: 100
[9]; 125 g ai/ha
  Mustard, Wild plant response rating: 100
[10]; 16 g ai/ha, scale of 0 to 100
  Plant response rating, Poinsettia, Wild: 55
[10]; 31 g ai/ha, scale 0 to 100
  Plant response rating, Poinsettia, Wild: 70
[10]; 62 g ai/ha
  Poinsettia, Wild plant response rating: 60
[10]; 125 g ai/ha
  Poinsettia, Wild plant response rating: 75
[11]; 16 g ai/ha, scale of 0 to 100
  Plant response rating, Field Violet: 80
[11]; 31 g ai/ha, scale 0 to 100
  Plant response rating, Field Violet: 85
[11]; 62 g ai/ha
  Field Violet plant response rating: 95
[11]; 125 g ai/ha
  Field Violet plant response rating: 100
[12]; 16 g ai/ha, scale of 0 to 100
  Plant response rating, Windgrass: 10
[12]; 31 g ai/ha, scale 0 to 100
  Plant response rating, Windgrass: 15
[12]
  Windgrass plant response rating: 35
[13]; 16 g ai/ha, scale of 0 to 100
  Plant response rating, Speedwell: 80
[13]; 31 g ai/ha, scale 0 to 100
  Plant response rating, Speedwell: 85
[13]; 62 g ai/ha
  Speedwell plant response rating: 98
[13]; 125 g ai/ha
  Speedwell plant response rating: 98
[14]; 16 g ai/ha, scale of 0 to 100
  Plant response rating, Buckwheat, Wild: 35
[14]; 31 g ai/ha, scale 0 to 100
  Plant response rating, Buckwheat, Wild: 90
[14]; 62 g ai/ha
  Buckwheat, Wild plant response rating: 75
[14]; 125 g ai/ha
  Buckwheat, Wild plant response rating: 80
[15]; 16 g ai/ha, scale of 0 to 100
  Plant response rating, Pigweed, Palmer: 35
[15]; 31 g ai/ha, scale 0 to 100
  Plant response rating, Pigweed, Palmer: 65
[15]; 62 g ai/ha
  Pigweed, Palmer plant response rating: 45
[15]; 125 g ai/ha
  Pigweed, Palmer plant response rating: 65
[16]; 16 g ai/ha, scale of 0 to 100
  Plant response rating, Field Poppy: 100
[16]; 31 g ai/ha, scale 0 to 100
  Plant response rating, Field Poppy: 100
[16]; 62 g ai/ha
  Field Poppy plant response rating: 100
[16]; 125 g ai/ha
  Field Poppy plant response rating: 100
[17]; 16 g ai/ha, scale of 0 to 100
  Plant response rating, Canada Thistle: 75
[17]; 31 g ai/ha, scale 0 to 100
  Plant response rating, Canada Thistle: 75
[17]; 62 g ai/ha
  Canada Thistle plant response rating: 98
[17]; 125 g ai/ha
  Canada Thistle plant response rating: 98

## CCCC(=O)c1c(Oc2ncc(Cl)cn2)cccc1C(F)(F)F [Compound 136]
[1]; 31 g ai/ha, scale 0 to 100
  Plant response rating, Windgrass: 30
[1]; 62 g ai/ha, scale 0 to 100
  Plant response rating, Windgrass: 85
[1]; 125 g ai/ha, scale of 0 to 100
  Plant response rating, Windgrass: 100
[2]; 31 g ai/ha, scale 0 to 100
  Plant response rating, Pigweed, Palmer: 75
[2]; 62 g ai/ha, scale 0 to 100
  Plant response rating, Pigweed, Palmer: 100
[2]; 125 g ai/ha, scale of 0 to 100
  Plant response rating, Pigweed, Palmer: 100
[3]; 31 g ai/ha, scale 0 to 100
  Plant response rating, Poinsettia, Wild: 5
[3]; 62 g ai/ha, scale 0 to 100
  Plant response rating, Poinsettia, Wild: 25
[3]; 125 g ai/ha, scale of 0 to 100
  Plant response rating, Poinsettia, Wild: 50
[4]; 31 g ai/ha, scale 0 to 100
  Plant response rating, Johnsongrass: 25
[4]; 62 g ai/ha, scale 0 to 100
  Plant response rating, Johnsongrass: 35
[4]; 125 g ai/ha, scale of 0 to 100
  Plant response rating, Johnsongrass: 70
[5]; 16 g ai/ha, scale of 0 to 100
  Plant response rating, Geranium, Cutleaf: 15
[5]; 31 g ai/ha, scale 0 to 100
  Plant response rating, Geranium, Cutleaf: 25
[5]; 62 g ai/ha
  Geranium, Cutleaf plant response rating: 50
[5]; 125 g ai/ha
  Geranium, Cutleaf plant response rating: 45
[6]; 16 g ai/ha, scale of 0 to 100
  Plant response rating, Johnsongrass: 5
[6]; 31 g ai/ha, scale 0 to 100
  Plant response rating, Johnsongrass: 5
[6]; 62 g ai/ha
  Johnsongrass plant response rating: 10
[6]; 125 g ai/ha
  Johnsongrass plant response rating: 15
[7]; 16 g ai/ha, scale of 0 to 100
  Plant response rating, Nightshade: 70
[7]; 31 g ai/ha, scale 0 to 100
  Plant response rating, Nightshade: 75
[7]; 62 g ai/ha
  Nightshade plant response rating: 70
[7]; 125 g ai/ha
  Nightshade plant response rating: 80
[8]; 16 g ai/ha, scale of 0 to 100
  Plant response rating, Surinam Grass: 5
[8]; 31 g ai/ha, scale 0 to 100
  Plant response rating, Surinam Grass: 5
[8]
  Surinam Grass plant response rating: 10
[9]; 16 g ai/ha, scale of 0 to 100
  Plant response rating, Mustard, Wild: 85
[9]; 31 g ai/ha, scale 0 to 100
  Plant response rating, Mustard, Wild: 95
[9]; 62 g ai/ha
  Mustard, Wild plant response rating: 85
[9]; 125 g ai/ha
  Mustard, Wild plant response rating: 100
[10]; 16 g ai/ha, scale of 0 to 100
  Plant response rating, Poinsettia, Wild: 40
[10]; 31 g ai/ha, scale 0 to 100
  Plant response rating, Poinsettia, Wild: 65
[10]; 62 g ai/ha
  Poinsettia, Wild plant response rating: 70
[10]; 125 g ai/ha
  Poinsettia, Wild plant response rating: 75
[11]; 16 g ai/ha, scale of 0 to 100
  Plant response rating, Field Violet: 85
[11]; 31 g ai/ha, scale 0 to 100
  Plant response rating, Field Violet: 90
[11]; 62 g ai/ha
  Field Violet plant response rating: 95
[11]; 125 g ai/ha
  Field Violet plant response rating: 100
[12]; 16 g ai/ha, scale of 0 to 100
  Plant response rating, Windgrass: 5
[12]; 31 g ai/ha, scale 0 to 100
  Plant response rating, Windgrass: 10
[12]
  Windgrass plant response rating: 30
[13]; 16 g ai/ha, scale of 0 to 100
  Plant response rating, Speedwell: 75
[13]; 31 g ai/ha, scale 0 to 100
  Plant response rating, Speedwell: 80
[13]; 62 g ai/ha
  Speedwell plant response rating: 80
[13]; 125 g ai/ha
  Speedwell plant response rating: 85
[14]; 16 g ai/ha, scale of 0 to 100
  Plant response rating, Buckwheat, Wild: 50
[14]; 31 g ai/ha, scale 0 to 100
  Plant response rating, Buckwheat, Wild: 60
[14]; 62 g ai/ha
  Buckwheat, Wild plant response rating: 90
[14]; 125 g ai/ha
  Buckwheat, Wild plant response rating: 80
[15]; 16 g ai/ha, scale of 0 to 100
  Plant response rating, Pigweed, Palmer: 50
[15]; 31 g ai/ha, scale 0 to 100
  Plant response rating, Pigweed, Palmer: 55
[15]; 62 g ai/ha
  Pigweed, Palmer plant response rating: 70
[15]; 125 g ai/ha
  Pigweed, Palmer plant response rating: 70
[16]; 16 g ai/ha, scale of 0 to 100
  Plant response rating, Field Poppy: 65
[16]; 31 g ai/ha, scale 0 to 100
  Plant response rating, Field Poppy: 85
[16]; 62 g ai/ha
  Field Poppy plant response rating: 80
[16]; 125 g ai/ha
  Field Poppy plant response rating: 90
[17]; 16 g ai/ha, scale of 0 to 100
  Plant response rating, Canada Thistle: 65
[17]; 31 g ai/ha, scale 0 to 100
  Plant response rating, Canada Thistle: 75
[17]; 62 g ai/ha
  Canada Thistle plant response rating: 85
[17]; 125 g ai/ha
  Canada Thistle plant response rating: 85

— patent publication US11053204B2, “Pyrimidinyloxy benzene derivatives as herbicides” (FMC Corporation, priority 2015, dated 2021)
